In paper PMC10017685 (Nature Communications, 2023):
≈ marks a conversion by molar mass, not a printed value. Where two headings read alike, the source gives them in different places. Peptide text beside a SMILES is read from it.

How the values were obtained:
Sheep red blood cells = assay: Hemolysis assay (HC50); assay type: cell-based
Method: The hemolysis assay was conducted according to the procedure described previously. Sheep red blood cells (Defibrillated Sheep Blood, Graso, Poland) were used. […] Then the solution of RBCs was added to each well (100 μL with a 4% concentration of erythrocytes (v/v). The control wells for 0 and 100% hemolysis were also prepared: RBCs suspended in PBS and 1% of Triton-X 100, respectively. After that the plates were incubated for 60 min at 37 °C and then centrifuged at 800 × g for 10 min at 4 °C (Sorvall ST 16R Centrifuge, Thermo Scientific). The supernatant was carefully […] to new microtiter plates and the release of hemoglobin was measured at 590 nm (Multiskan™ GO Microplate Spectrophotometer, Thermo Scientific). Hemolysis for each concentration was calculated as the percentage of control with 100% hemolysis. All experiments were conducted in triplicate. The final values of HC50 were computed using ic50.tk tool.

E. coli ATCC 25922 [1] = assay type: cell-based, Escherichia coli
Method: Fresh cultures were used in antimicrobial assay. […] Moreover MBC was evaluated. […] All experiments were conducted in triplicate.

E. coli ATCC 43827 = assay type: cell-based, Escherichia coli
Method: Verification of antimicrobial activity of the synthesized analogs was conducted on reference strains of E. coli ATCC 25922 and ATCC 43827 in the first phase of the experimental validation, and S. aureus ATCC 33591, E. coli ATCC 25922, E. coli ATCC 43827, A. baumannii ATCC BAA 1605, P. aeruginosa ATCC 9027 in the second phase.
All the strains were stored at -80 °C in Roti®-Store cryo vials (Carl Roth GmbH, Germany) and before the tests were transferred into fresh Mueller-Hinton Medium (BioMaxima, Poland) and incubated for 24 h at 37 °C. Fresh cultures were used in antimicrobial assay. The MIC values were evaluated by the broth microdilution method according to Clinical and Laboratory Standards Institute Protocol[86]. […] The experiments were conducted on 96-well microtiter plates, with a final volume of 100 μL. Inoculums densities were adjusted spectrophotometrically (Multiskan™ GO Microplate Spectrophotometer, Thermo Scientific) at the wavelength of 600 nm. The MICs were taken as the lowest drug concentration at which a visible growth of microorganisms was inhibited[87]. Moreover MBC was evaluated. After MIC examination the samples from MIC well and two higher concentrations were seeded on the agar plates. Section with no visible growth of bacterial colonies was reported as the MBC for each strain and compound. All experiments were conducted in triplicate. […]

[2] = experimentally confirmed activity, strain not given; ref Supplementary Data 3; cited from earlier work
Excerpt: 21 (1 picture or pasted object on this page, not shown here)

E. coli ATCC 25922 [3] = test system: E. coli ATCC 25922; set-up: method as in DBAASP; settings: origin dbaasp_ecoli; ref DBAASP; cited from earlier work
human erythrocytes = test system: human erythrocytes; set-up: method as in DBAASP; settings: toxicity class label 1 or 0, meaning of the labels not given; DBAASP HC50 data, human erythrocytes; ref DBAASP; cited from earlier work
[4] = Supplementary Data 5F, analogue generation without additional preselection
[5] = first experimental round, broth microdilution (CLSI), Mueller-Hinton Broth, 0.5 × 10^5 CFU/mL, 1-[…], 18 h at 37 °C, triplicate

Compound | Class (dedicated toxicity dataset used for toxicity classifier evaluation) (human erythrocytes) | other results
CC[C@H](C)[C@H](NC(=O)[C@H](Cc1ccccc1)NC(=O)[C@H](CCCCN)NC(=O)[C@H](CC(N)=O)NC(=O)[C@H](CC(C)C)NC(=O)[C@H](CCC(N)=O)NC(=O)CN)C(=O)N[C@@H](CCCCN)C(=O)N[C@@H](CCCCN)C(=O)N[C@@H](C)C(=O)N[C@@H](CCC(N)=O)C(=O)N[C@@H](CCCNC(=N)N)C(=O)N[C@@H](CCCCN)C(=O)N[C@@H](Cc1ccccc1)C(=O)N[C@@H](Cc1c[nH]cn1)C(=O)N[C@@H](CCC(=O)O)C(=O)N[C@@H](CCCCN)C(=O)N[C@@H](Cc1ccccc1)C(=O)N[C@@H](C)C(=O)N[C@@H](CCCCN)C(N)=O [GQ20] (H-GQLNKFIKKAQRKFHEKFAK-NH2) | – | HC50 (Sheep red blood cells): > 512 µg/mL; HC50 (Sheep red blood cells; red cells of sheep): >512 µg/mL
CC[C@H](C)[C@H](N)C(=O)NCC(=O)N[C@@H](CCCCN)C(=O)N[C@@H](CCC(=O)O)C(=O)N[C@@H](Cc1ccccc1)C(=O)N[C@@H](CCCCN)C(=O)N[C@@H](CCCNC(=N)N)C(=O)N[C@H](C(=O)N[C@H](C(=O)N[C@@H](CCC(=O)O)C(=O)N[C@@H](CCCNC(=N)N)C(=O)N[C@H](C(=O)N[C@@H](CCCCN)C(=O)N[C@@H](CCCNC(=N)N)C(=O)N[C@@H](Cc1ccccc1)C(=O)N[C@@H](CC(C)C)C(=O)N[C@@H](CCCNC(=N)N)C(=O)N[C@@H](CCC(=O)O)C(=O)N[C@@H](CC(C)C)C(=O)N[C@H](C(=O)N[C@@H](CCCNC(=N)N)C(=O)N1CCC[C@H]1C(=O)N[C@@H](CC(C)C)C(=O)N[C@@H](CCCNC(=N)N)C(N)=O)C(C)C)[C@@H](C)CC)C(C)C)[C@@H](C)CC [OP-145] (H-IGKEFKRIVERIKRFLRELVRPLR-NH2) | – | HC50 (Sheep red blood cells): > 512 µg/mL; HC50 (Sheep red blood cells; red cells of sheep): >512 µg/mL
CC[C@H](C)[C@H](N)C(=O)N[C@@H](CC(C)C)C(=O)N[C@@H](CCCNC(=N)N)C(=O)N[C@@H](Cc1c[nH]c2ccccc12)C(=O)N1CCC[C@H]1C(=O)N[C@@H](Cc1c[nH]c2ccccc12)C(=O)N[C@@H](Cc1c[nH]c2ccccc12)C(=O)N1CCC[C@H]1C(=O)N[C@@H](Cc1c[nH]c2ccccc12)C(=O)N[C@@H](CCCNC(=N)N)C(=O)N[C@@H](CCCNC(=N)N)C(=O)N[C@@H](CCCCN)C(N)=O [Omiganan] (H-ILRWPWWPWRRK-NH2) | – | HC50 (Sheep red blood cells): > 512 µg/mL; HC50 (Sheep red blood cells; red cells of sheep): >512 µg/mL
CC[C@H](C)[C@H](NC(=O)CN)C(=O)NCC(=O)N[C@@H](CCCCN)C(=O)N[C@@H](Cc1ccccc1)C(=O)N[C@@H](CC(C)C)C(=O)N[C@@H](CCCCN)C(=O)N[C@@H](CCCCN)C(=O)N[C@@H](C)C(=O)N[C@@H](CCCCN)C(=O)N[C@@H](CCCCN)C(=O)N[C@@H](Cc1ccccc1)C(=O)NCC(=O)N[C@@H](CCCCN)C(=O)N[C@@H](C)C(=O)N[C@@H](Cc1ccccc1)C(=O)N[C@H](C(=O)N[C@@H](CCCCN)C(=O)N[C@H](C(=O)N[C@@H](CC(C)C)C(=O)N[C@@H](CCCCN)C(=O)N[C@@H](CCCCN)C(N)=O)[C@@H](C)CC)C(C)C [Pexiganan] (H-GIGKFLKKAKKFGKAFVKILKK-NH2) | – | HC50 (Sheep red blood cells): > 512 µg/mL; HC50 (Sheep red blood cells; red cells of sheep): >512 µg/mL
CC[C@H](C)[C@H](NC(=O)[C@H](CCCCN)NC(=O)[C@H](CC(N)=O)NC(=O)[C@@H](NC(=O)[C@@H](NC(=O)[C@H](CCCCN)NC(=O)[C@@H](NC(=O)[C@H](C)NC(=O)[C@@H](NC(=O)[C@H](Cc1c[nH]cn1)NC(=O)CNC(=O)[C@H](C)NC(=O)[C@H](CC(C)C)NC(=O)[C@H](CC(=O)O)NC(=O)[C@H](CCCCN)NC(=O)[C@H](C)NC(=O)[C@H](C)NC(=O)CNC(=O)[C@H](CCCCN)NC(=O)[C@H](CC(C)C)NC(=O)[C@@H](NC(=O)[C@H](CC(=O)O)NC(=O)[C@H](CC(C)C)NC(=O)[C@@H](NC(=O)CN)C(C)C)[C@@H](C)CC)C(C)C)[C@@H](C)O)C(C)C)[C@@H](C)CC)C(N)=O [Syphaxin] (H-GVLDILKGAAKDLAGHVATKVINKI-NH2) | – | HC50 (Sheep red blood cells): > 512 µg/mL; HC50 (Sheep red blood cells; red cells of sheep): >512 µg/mL
CC[C@H](C)[C@H](NC(=O)CNC(=O)[C@H](CO)NC(=O)[C@H](CC(C)C)NC(=O)[C@@H](NC(=O)[C@H](CCCNC(=N)N)NC(=O)CNC(=O)[C@@H](NC(=O)[C@H](CC(C)C)NC(=O)[C@@H]1CCCN1C(=O)[C@H](CC(C)C)NC(=O)[C@@H](N)Cc1ccccc1)[C@@H](C)CC)C(C)C)C(=O)N[C@@H](C)C(N)=O [Temp-P1-3] (H-FLPLIGRVLSGIA-NH2) | – | E. coli ATCC 25922 MIC (E. coli ATCC 25922 [1]; [4]): 512 µg/mL; MIC E. coli ATCC 25922 (E. coli ATCC 25922 [1]; [5]): 512 µg/mL (≈ 378 µM); E. coli ATCC 43827 MIC (E. coli ATCC 43827; [4]): 512 µg/mL; MIC E. coli ATCC 43927 (E. coli ATCC 43827; [5]): 512 µg/mL (≈ 378 µM)
FLRFIGSVIHGIGHLVHHIGVAL [Clavaspirin] | – | MIC (moderately active AMP of MD validation set) [2]: 64 µg/mL
GLLSLSLGKLL | – | Class (activity against E. coli ATCC 25922 in dedicated activity dataset) (E. coli ATCC 25922 [3]): 1 (positive (active) examples are peptides selected from DBAASP with experimentally verified MIC≤ 101.5≃ 32 against E. coli ATCC 25922)
KDRPKKPGLCPLIWWLIIKVG | – | Class (activity against E. coli ATCC 25922 in dedicated activity dataset) (E. coli ATCC 25922 [3]): 1 (positive (active) examples are peptides selected from DBAASP with experimentally verified MIC≤ 101.5≃ 32 against E. coli ATCC 25922)
KWCFRVCARGICYRRCR | – | Class (activity against E. coli ATCC 25922 in dedicated activity dataset) (E. coli ATCC 25922 [3]): 1 (positive (active) examples are peptides selected from DBAASP with experimentally verified MIC≤ 101.5≃ 32 against E. coli ATCC 25922)
LKKLLKLLKPLLKL | – | Class (activity against E. coli ATCC 25922 in dedicated activity dataset) (E. coli ATCC 25922 [3]): 1 (positive (active) examples are peptides selected from DBAASP with experimentally verified MIC≤ 101.5≃ 32 against E. coli ATCC 25922)
VKWRWKKWRWKWKWKV [DBAASP_8776] | 0 | –
VKWRWKWKWRWKWKWKV [DBAASP_8777] | 0 | –
VQLRIRVAVIRA [DBAASP_7109] | 0 | –
VQWRIRVAVIRK [DBAASP_7680] | 0 | –
VRRFAWWWAFLRR [DBAASP_5137] | 0 | –
VRRFAWWWPFLRR [DBAASP_5142] | 0 | –
VRRFPAAAPFLRR [DBAASP_14271] | 0 | –
VRRFPWAWPFLRR [DBAASP_14266] | 0 | –
VRRFPWWAPFLRR [DBAASP_14267] | 0 | –
VRRFPWWYPFLRR [DBAASP_14261] | 0 | –
VRRFPWYWPFLRR [DBAASP_14260] | 0 | –
VRRFPWYYPFLRR [DBAASP_14263] | 0 | –

Compound | Class (dedicated toxicity dataset used for toxicity classifier evaluation) (human erythrocytes) | other results
VRRFPYWWPFLRR [DBAASP_14259] | 0 | –
VRRFPYWYPFLRR [DBAASP_14264] | 0 | –
VRRFPYYWPFLRR [DBAASP_14262] | 0 | –
WCRRYRVLVRGVLVRYRRCW [DBAASP_13507] | 0 | –
WIRRIKKWIRRVHK [DBAASP_10626] | 0 | –
WKIFKLKLRMLW [DBAASP_13717] | 1 | –
WKKIWSKIKKLLK [DBAASP_7155] | 0 | –
WKKWWKKWWKKW [DBAASP_10848] | 0 | –
WKRRIKIWKKIR [DBAASP_10625] | 0 | –
WLRRIGKGVKIIGGAALDHL [DBAASP_5344] | 0 | –
WLRRIKAWLRRIKA [DBAASP_7164] | 0 | –
WLRRIKAWLRRKRK [DBAASP_10627] | 0 | –
WRRRRRRRR [DBAASP_8812] | 0 | –
WRRRYRRWRRRRRWRRRPRR [DBAASP_10396] | 0 | –
WRWLRRIW [DBAASP_10631] | 0 | –
WWRLRRIW [DBAASP_10632] | 0 | –
WWWLKKIW [DBAASP_9820] | 0 | –
WWWLRRIR [DBAASP_10635] | 0 | –
WWWLRRIW [DBAASP_10629] | 0 | –
WWWLRRRW [DBAASP_10634] | 0 | –
WWWRRRIW [DBAASP_10633] | 0 | –
YLRLIRYMAKMI [DBAASP_17183] | 0 | –
